Measurements taken from patent US20240100065A1, “METHODS FOR TREATING RECEPTOR-INTERACTING PROTEIN KINASE 1-MEDIATED DISEASES” (Genzyme Corporation, priority 2022, published 2024).

Test: Safety and tolerability (TEAEs, PCSAs, laboratory tests) in phase 1 study Parts 1a, 1b, 2
Assay type: in vivo, healthy adult participants (human)
Details: for ALT increase: Part 1b 10 mg
Procedure: This single ascending dose (SAD) study consisted of three parts: Part 1a, which is a phase 1, randomized, placebo-controlled, double-blind, sequential ascending single dose study; Part 1b, which is phase 1, open-label, sequential single dose study; and Part 2, which is an ascending 14-day repeated oral dose study.
Part 1a evaluated 4 sequential ascending dose levels of Compound 1 under fasted conditions: 10 mg, 20 mg, 30 mg, and 40 mg, each dose per cohort. Participants were fasted overnight for at least 8 hours before the morning dose and 2 hours after dosing.
Part 1b is an open-label study with two single dose levels of Compound 1, previously tested for safety/tolerability in SAD cohorts of Part 1a, were selected (10 mg and 40 mg) and sequentially administered under a fed condition, each dose per cohort. Participants were fasted overnight for at least 8 hours, and then fed with a light breakfast approximately 30 minutes before Compound 1 dosing. In both Part 1a and 1b, all participants received one single dose of treatment.
Part 2 was a randomized, double-blind, placebo-controlled study that evaluated 14-day multiple ascending oral doses of Compound 1 once daily (OD) or twice daily (BID) regimen under fasted conditions: 10 mg QD, 20 mg QD, 15 mg BID, and 20 mg BID. Participants fasted overnight for at least 8 hours before the morning dose and 2 hours after dosing on Day 1 and Day 14. All other morning doses were administered after an overnight fast and approximately 30 minutes before a breakfast snack. Sentinel dosing approach was followed where two of ten participants in each cohort were dosed the first day (n=1, Compound; n=1, placebo) in advance of the full cohort. The remaining 8 participants from each cohort were randomized to receive either Compound or placebo (randomized 7:1) on the following days with at least 48-hour interval from dosing of the sentinel participants, allowing a safety evaluation at the predicted steady state.
Safety and tolerability were assessed by physical examination, neurological examination, monitoring adverse events (AEs) and potentially clinically significant abnormalities (PCSAs) in clinical laboratory tests (hematology, clinical chemistry, and urinalysis), vital signs (body temperature, blood pressure and heart rate), and ECG parameters (heart rate, RR, PR, QRS, QT, QTcF, QTcB intervals) measured in the standard 12-lead ECG or ECGs extracted from 24-hour Holter ECG data.
Safety population included all participants who received at least one dose of study intervention (Compound 1 or placebo). All safety assessments (AEs, laboratory parameters, vital signs) were based on the review of individual values and were summarized using descriptive statistics. Safety analysis was focused on treatment-emergent period, defined as the time from the first investigational medicinal product (IMP) administration up to the end of study visit (included). AEs were coded according to the Medical Dictionary for Regulatory Activities (MedDRA, version 23.1 in Part 1a and Part 1b; version 24 in Part 2). Severity was graded from Grade 1 to 4 according to the Food and Drug Administration (FDA) Guidance for Industry. Number (%) of participants experiencing TEAEs and potentially clinically significant abnormality (PCSAs) in clinical chemistry, vital signs, and ECGs were summarized by dose level group.

## CC(C)(C(=O)N1CCOc2c(C#N)cncc2C1)C(F)F [Compound 1, 4-(3,3-difluoro-2,2-dimethyl-propanoyl)-3,5-dihydro-2H-pyrido[3,4-f] [1,4]oxazepine-9-carbonitrile]
Part 1a single 40 mg fasted
  TEAE Eye disorders, participants: 0 n
  TEAE Fatigue, participants: 0 n
  TEAE General disorders and administration site conditions, participants: 1 n
  TEAE Headache, participants: 0 n
  TEAE Investigations, participants: 0 n
  TEAE Keratitis, participants: 0 n
  TEAE Medical device site dermatitis, participants: 0 n
  TEAE Musculoskeletal and connective tissue disorders, participants: 1 n
  TEAE Myalgia, participants: 1 (16.7) n
  TEAE Nervous system disorders, participants: 1 n
  TEAE Presyncope, participants: 0 n
  TEAE Skin and subcutaneous tissue disorders, participants: 1 n
  TEAE Skin irritation, participants: 0 n
  TEAE Tachycardia, participants: 0 n
  TEAE Thrombophlebitis, participants: 0 n
  TEAE Vascular disorders, participants: 0 n
  TEAE Ventricular extrasystoles, participants: 1 n
  TEAE Vessel puncture site hypoaesthesia, participants: 1 n
  TEAE Vessel puncture site pain, participants: 1 n
Part 1a, all Compound 1 groups
  PCSAs (hematology, clinical chemistry, vital signs, ECG), relevance: not clinically relevant
Part 1a, all Compound 1 groups, out of 24
  Participants with at least one TEAE: 9 participants
Part 1a, single 10-40 mg fasted
  SAEs or AESIs: no SAEs or AESIs
One participant, Day 2
  ALT increase: 1.5 fold ULN
One participant, Day 7 (end-of-study visit)
  ALT increase: 2.4 fold ULN
Part 1b overall, out of 12
  Participants with at least one TEAE: 10 participants
Part 1b single 10 mg fed
  Any Grade ≥3 TEAE, participants: 0 n
  Any TEAE, participants: 4 n
  Any treatment-emergent AESI, participants: 1 n
  Any treatment-emergent SAE, participants: 0 n
  TEAE Alanine aminotransferase increased, participants: 1 n
  TEAE Back pain, participants: 1 n
  TEAE Cerebrospinal fluid leakage, participants: 1 n
  TEAE Coccydynia, participants: 0 n
  TEAE Constipation, participants: 0 n
  TEAE Dizziness, participants: 0 n
  TEAE Gastrointestinal disorders, participants: 1 n
  TEAE Headache, participants: 3 n
  TEAE Investigations, participants: 1 n
  TEAE Musculoskeletal and connective tissue disorders, participants: 1 n
  TEAE Nausea, participants: 1 n
  TEAE Nervous system disorders, participants: 4 n
  TEAE Polyuria, participants: 0 n
  TEAE Radiculopathy, participants: 0 n
  TEAE Renal and urinary disorders, participants: 0 n
  TEAE Vomiting, participants: 1 n
Part 1b single 40 mg fed
  Any Grade ≥3 TEAE, participants: 1 n
  Any TEAE, participants: 6 n
  Any treatment-emergent AESI, participants: 0 n
  Any treatment-emergent SAE, participants: 1 n
  TEAE Alanine aminotransferase increased, participants: 0 n
  TEAE Back pain, participants: 2 n
  TEAE Cerebrospinal fluid leakage, participants: 3 (50.0) n
  TEAE Coccydynia, participants: 1 n
  TEAE Constipation, participants: 1 n
  TEAE Dizziness, participants: 1 n
  TEAE Gastrointestinal disorders, participants: 2 n
  TEAE Headache, participants: 4 n
  TEAE Investigations, participants: 0 n
  TEAE Musculoskeletal and connective tissue disorders, participants: 2 n
  TEAE Nausea, participants: 1 n
  TEAE Nervous system disorders, participants: 5 n
  TEAE Polyuria, participants: 1 n
  TEAE Radiculopathy, participants: 1 n
  TEAE Renal and urinary disorders, participants: 1 n
  TEAE Vomiting, participants: 1 n
Part 1b, all Compound 1 groups
  PCSAs (vital signs, ECG), relevance: not clinically relevant
Part 2 10 mg QD 14 days
  Any Grade ≥3 TEAE, participants: 0 n
  Any TEAE, participants: 4 n
  Any treatment-emergent AESI, participants: 0 n
  Any treatment-emergent SAE, participants: 0 n
Part 2 10 mg QD, out of 8
  TEAE Nervous system disorders, participants: 2 participants
Part 2 15 mg BID 14 days
  Any Grade ≥3 TEAE, participants: 0 n
  Any TEAE, participants: 6 n
  Any treatment-emergent AESI, participants: 1 n
  Any treatment-emergent SAE, participants: 0 n
Part 2 15 mg BID, one participant, Day 9
  ALT increase (AESI): 2.29 ULN
Part 2 15 mg BID, one participant, Day 15, 24 hours post last dosing
  ALT increase (AESI), highest: 2.71 ULN
Part 2 15 mg BID, out of 8
  TEAE Nervous system disorders, participants: 1 participants
Part 2 20 mg BID 14 days
  Any Grade ≥3 TEAE, participants: 0 n
  Any TEAE, participants: 4 n
  Any treatment-emergent AESI, participants: 0 n
  Any treatment-emergent SAE, participants: 0 n
Part 2 20 mg BID, out of 8
  TEAE Nervous system disorders, participants: 2 participants
Part 2 20 mg QD 14 days
  Any Grade ≥3 TEAE, participants: 0 n
  Any TEAE, participants: 3 n
  Any treatment-emergent AESI, participants: 0 n
  Any treatment-emergent SAE, participants: 0 n
Part 2 20 mg QD, out of 8
  TEAE Nervous system disorders, participants: 1 participants
Part 2, 14-day repeated doses
  SAE and severe TEAE (Grade ≥3): no serious adverse event (SAE) and no severe treatment-emergent adverse event
Part 2, all groups
  PCSAs for vital signs and ECG parameters, relevance: not clinically meaningful
Single dose up to 40 mg fasted and fed, up to 20 mg BID for 14 days
  Safety and tolerability, overall: safe and well tolerated
